SMILES strings stand for the structures. Positions of bridges follow the written chain, without caps; N, C: chain ends. Non-standard residues stand in square brackets, D forms with d. Residues, ends and D or L forms follow the SMILES beside them.

This passage reports clearance results from US12018059B2, “Human amylin analog polypeptides and methods of use” (Intarcia Therapeutics, Inc., priority 2018, dated 2024).

The data set is described as follows: Pharmacokinetics, 3-hour intravenous infusion of linear (non-acylated) polypeptides. Also noted: species or system Sprague-Dawley rats. Conditions: rat, in vivo, iv, 0.1 mg/kg. The protocol: Peptides were dissolved in sterile saline and administered as a 3-hour intravenous infusion to non-fasted male Sprague-Dawley rats (n=3 per group) via femoral vein cannula at a final dose of 0.100 mg/kg. […] Blood samples (approximately 250 μL) were collected for pharmacokinetic analysis via a jugular vein cannula at 0.25, 0.5, 1, 2, 3, 3.17, 3.33, 3.5, 4, 4.5, 5, and 6 hr post-start of infusion (long method) or at 1, 1.5, 2, 2.5, and 3 hr post-start of infusion (steady-state screening method). All samples were collected into microtainer tubes containing K2EDTA as anticoagulant and 25 μL of a protease inhibitor cocktail. Plasma was prepared by centrifugation and stored at −80° C. until analysis. The results of this analysis are shown in Table 9 and few exemplars in FIGS. 3a-3b.
A 60 μL aliquot of each plasma sample was placed into to a 96-well plate. To each well was added 6 μL of 0.5% Tween-20. Plates were then vortexed mixed for 10 minutes at 1200 rpm before 180 μL of 0.1% TFA in 2:1 ethanol:acetonitrile containing an appropriate internal standard was added to each well. Plates were vortex mixed for 5 min at 1300 rpm, and then centrifuged for 10 min at 2844×g. Supernatants (180 μL) were placed into a clean 96-well plate and evaporated under a nitrogen stream at 45° C. Residues were reconstituted in 80 μL of 20% acetonitrile (aq) containing 0.1% formic acid.
A […] aliquot of each plasma sample was diluted with […] of 10 mM ammonium acetate (pH 6.8) containing an appropriate internal standard and loaded onto an Oasis WCX microElution plate (Waters Corporation, Milford, MA) that had been pre-conditioned with […] of methanol and […] of deionized water. Samples were washed with […] of 5% ammonium hydroxide (aq) followed by […] of 20% acetonitrile in water. The analyte was eluted with […] of 5% formic acid in 75:25 acetonitrile:water. The eluent was dried under a nitrogen stream. Residues were reconstituted in 80 μL of 20% acetonitrile (aq) containing 0.1% formic acid.
All calibration standards were prepared in control rat plasma containing K2EDTA and protease inhibitor cocktail.
Samples and standards were analyzed by TurbolonSpray™ UPLC-MS/MS using a system consisting of a CTC HTS PAL auto-injector (Leap, Carrboro, NC), an Agilent Infinity 1290 system with column oven (Palo Alto, CA), a Valco switching valve (Houston, TX), and either an AB Sciex API 5600 TripleTOF™ or Sciex API 4000QTrap mass spectrometer (Framingham, MA). Samples were injected onto a 2.1×50 mm reverse phase C18 analytical column, typically a Waters CORTECS UPLC C18+, 1.6 μm (Waters Corporation, Milford, MA) or similar. […] Initial conditions consisted of 90% A and 10% B. The organic component was increased to 95% B over a period of 3-4 minutes, depending on the peptide. Typical flow rates were 600 μL/min. The column temperature was held constant at 40 or 50° C. Peptides were quantified by monitoring one or more product ions produced from a multiply charged parent ion.
For `CC[C@H](C)[C@H](NC(=O)[C@@H]1CCCN1C(=O)CNC(=O)[C@H](Cc1ccccc1)NC(=O)[C@H](CCC(=O)O)NC(=O)[C@H](CC(N)=O)NC(=O)[C@H](CO)NC(=O)[C@H](CO)NC(=O)[C@H](CCCCN)NC(=O)[C@@H](NC(=O)[C@H](CC(C)C)NC(=O)[C@H](Cc1ccccc1)NC(=O)[C@H](CC(N)=O)NC(=O)[C@H](CO)NC(=O)[C@H](CC(C)C)NC(=O)[C@H](CCCNC(=N)N)NC(=O)[C@H](CCC(N)=O)NC(=O)[C@@H](NC(=O)[C@H](C)NC(=O)[C@@H]1CSSC[C@H](NC(=O)[C@@H](N)CO)C(=O)N[C@@H](CC(N)=O)C(=O)N[C@@H]([C@@H](C)O)C(=O)N[C@@H](CO)C(=O)N[C@@H]([C@@H](C)O)C(=O)N1)[C@@H](C)O)C(C)C)C(=O)N[C@@H](CC(C)C)C(=O)N1CCC[C@H]1C(=O)N1CCC[C@H]1C(=O)N[C@H](C(=O)N[C@@H](CCCCN)C(=O)N[C@H](C(=O)NCC(=O)N[C@@H](CO)C(=O)N[C@@H](CCC(=O)O)C(=O)N[C@H](C(=O)N[C@@H](Cc1ccc(O)cc1)C(N)=O)[C@@H](C)O)C(C)C)[C@@H](C)O` [Compound A4] (H-SCNTSTCATQRLSNFLVKSSNEFGPILPPTKVGSETY-NH2; disulfide 2-7), the clearance – broadly, the rate of elimination divided by the concentration – is 13.6 mL/min/kg. With `CC[C@H](C)[C@H](NC(=O)[C@@H]1CCCN1C(=O)CNC(=O)[C@H](Cc1ccccc1)NC(=O)[C@H](CCC(=O)O)NC(=O)[C@H](CC(N)=O)NC(=O)[C@H](CO)NC(=O)[C@H](CO)NC(=O)[C@H](CCCCN)NC(=O)[C@@H](NC(=O)[C@@H](CC(C)C)NC(=O)[C@H](Cc1ccccc1)NC(=O)[C@H](CC(N)=O)NC(=O)[C@H](C)NC(=O)[C@H](CC(C)C)NC(=O)[C@H](CCCNC(=N)N)NC(=O)[C@H](CCC(N)=O)NC(=O)[C@@H](NC(=O)[C@H](C)NC(=O)[C@@H]1CSSC[C@H](NC(=O)[C@@H](N)CO)C(=O)N[C@@H](CC(N)=O)C(=O)N[C@@H]([C@@H](C)O)C(=O)N[C@@H](CO)C(=O)N[C@@H]([C@@H](C)O)C(=O)N1)[C@@H](C)O)C(C)C)C(=O)N[C@@H](CC(C)C)C(=O)N1CCC[C@H]1C(=O)N1CCC[C@H]1C(=O)N[C@H](C(=O)N[C@@H](CCCCN)C(=O)N[C@H](C(=O)NCC(=O)N[C@@H](CO)C(=O)N[C@@H](CCC(=O)O)C(=O)N[C@H](C(=O)N[C@@H](Cc1ccc(O)cc1)C(N)=O)[C@@H](C)O)C(C)C)[C@@H](C)O` [Compound A6] (H-SCNTSTCATQRLANF[dL]VKSSNEFGPILPPTKVGSETY-NH2; disulfide 2-7; N-terminus assumed) the figure was 26.4 mL/min/kg; with `CC[C@H](C)[C@H](NC(=O)[C@@H]1CCCN1C(=O)CNC(=O)[C@H](Cc1ccccc1)NC(=O)[C@H](CCC(=O)O)NC(=O)[C@H](CC(N)=O)NC(=O)[C@H](CO)NC(=O)[C@H](CO)NC(=O)[C@H](CCCCN)NC(=O)[C@@H](NC(=O)[C@H](CC(C)C)NC(=O)[C@H](Cc1ccc(O)cc1)NC(=O)[C@H](CC(N)=O)NC(=O)[C@H](C)NC(=O)[C@H](CC(C)C)NC(=O)[C@H](CCCNC(=N)N)NC(=O)[C@H](CCC(N)=O)NC(=O)[C@@H](NC(=O)[C@H](C)NC(=O)[C@@H]1CSSC[C@H](NC(=O)[C@@H](N)CO)C(=O)N[C@@H](CC(N)=O)C(=O)N[C@@H]([C@@H](C)O)C(=O)N[C@@H](CO)C(=O)N[C@@H]([C@@H](C)O)C(=O)N1)[C@@H](C)O)C(C)C)C(=O)N[C@@H](CC(C)C)C(=O)N1CCC[C@H]1C(=O)N1CCC[C@H]1C(=O)N[C@H](C(=O)N[C@@H](CCCCN)C(=O)N[C@H](C(=O)NCC(=O)N[C@@H](CO)C(=O)N[C@@H](CCC(=O)O)C(=O)N[C@H](C(=O)N[C@@H](Cc1ccc(O)cc1)C(N)=O)[C@@H](C)O)C(C)C)[C@@H](C)O` [Compound A15] (H-SCNTSTCATQRLANYLVKSSNEFGPILPPTKVGSETY-NH2; disulfide 2-7), 14.4 mL/min/kg.
